Reference: paper PMC6987128, “Target protein-oriented isolation of Hes1 dimer inhibitors using protein based methods” (Scientific Reports, 2020)
Where two headings read alike, the source gives them in different places.

What was measured:
[1] = biological target: T1, Hes1 dimer formation (Hes1-Hes1 interaction) (Rattus norvegicus, UniProt Q04666); assay: Hes1-Hes1 interaction fluorescent plate assay (Hes1 dimer formation inhibition); assay type: binding; conditions: for remaining activity at 5 µM: 5 μM compound; for remaining activity at 100 µM: 100 μM compound
T1 construct: Glutathione-S-transferase (GST) fused rat Hes1(3–281) protein was expressed in Escherichia coli; GST (N, cleaved yes); GST (N); made in house; host or cells: Escherichia coli JM109 (pGEX-ratHes1 3-281)
T1 sequence (Q04666 3-281): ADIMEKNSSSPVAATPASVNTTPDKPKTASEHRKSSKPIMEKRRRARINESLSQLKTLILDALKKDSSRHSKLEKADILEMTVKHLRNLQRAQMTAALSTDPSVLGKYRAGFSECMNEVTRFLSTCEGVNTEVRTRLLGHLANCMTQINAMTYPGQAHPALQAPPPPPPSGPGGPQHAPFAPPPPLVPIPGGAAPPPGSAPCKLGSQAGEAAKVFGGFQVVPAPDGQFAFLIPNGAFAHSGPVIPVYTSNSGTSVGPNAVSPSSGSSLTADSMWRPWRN
From the text: It is essential to inhibit undesired PPIs in drug development, and bioactivity-guided isolation using the inhibitory activity of PPIs is an attractive method to obtain effective inhibitors. However, currently there are only a few examples of such approaches using PPI assay systems[22],[23]. We previously developed a Hes1-Hes1 interaction fluorescent plate assay and reported the screening results of our natural products compound library (Fig. 2A)[24]. Glutathione-S-transferase (GST) fused rat Hes1(3–281) protein was expressed in Escherichia coli and purified rat Hes1 protein was immobilized on the bottom of 96 well plates. We prevented GST-GST interactions, which would result in false positives, by preparing GST-free Hes1 protein by GST cleavage with Turbo3C protease. After labeling Hes1 with Cy3, this florescent Hes1 protein was added to the wells of the above plate and incubated for 24 h at 4 °C. Hes1-Hes1 interaction was successfully detected as Cy3 fluorescence intensity. Using this assay system, we screened our 118 plant extract library and identified the MeOH extract of Psidium guajava leaves to contain naturally occurring compounds that inhibit Hes1 dimer formation. The MeOH extract (29.9 g) was fractionated using Diaion HP-20 with a MeOH-acetone solvent system to afford fractions 1A to 1C. Active fraction 1A (27.2 g) was suspended in 10% aq. MeOH and partitioned with hexane, EtOAc and BuOH to obtain hexane (1.1 g), EtOAc (5.7 g), BuOH (4.7 g) and aqueous (18.9 g) soluble fractions. Part of the active BuOH soluble fraction was subjected to ODS column chromatography and reverse-phase HPLC. Activity-guided separation yielded ten compounds (1–10; Fig. 3). The isolated compounds were identified as morin (1)[25], isoquercitrin (2)[26], methyl gallate (3)[27], (+)-catechin (4)[28],[29], dihydrophaseic acid (5)[30], quercetin (6)[26],[31], avicularin (7)[32],[33], gallic acid (8)[34], protocatechuic acid (9)[35] and 4-hydroxybenzoic acid (10)[36] based on comparisons of their spectral data with spectra in the literature.
Hes1-bound microplate wells[24] (Nunc Immobilizer^TM Amino Plate, Thermo) were incubated with 50 μL of Cy3-labeled-Hes1 in NET-N buffer (NET buffer (20 mM Tris-HCl, pH 7.5, 200 mM NaCl, 1 mM EDTA) containing 0.05% Nonidet® P-40, ca. 7 mg/L, dye/protein = 0.4) for 24 h at 4 °C. After removing the protein solution, the wells were washed twice with 200 μL of PBST, then each compound solution (in NET-N buffer, 50 μL) was added and the plates were incubated for 1 h at RT in the dark. The wells were washed twice with 200 μL of PBST, then dried under reduced pressure for 1 h in the dark. The Cy3 dye was excited at 544 nm and emission was monitored at 590 nm using a microplate reader (Fluoroskan Ascent, Thermo Labsystems, Vantaa, Finland). The assays were typically carried out in three individual wells, and the mean value and SD were calculated. The equilibrium between dimer formation between Cy3-Hes1/Cy3-Hes1 (in solution) and Cy3-Hes1/immobilized-Hes1 allowed the detection of Cy3-Hes1/immobilized-Hes1.
Typical procedure; Nunc Immobilizer^TM Amino 96 well Plate, white (Nalge Nunc Int., NY, USA) was used for immobilizing of Hes1. The micro plate wells were incubated with 100 µl of Hes1 (10 µg/mL in PBS) 2 h at 4 °C. After removing protein solution, the wells were incubated for 2 h at 4 °C with 100 µL of 10 mM ethanolamine (in 100 mM Na2CO3 buffer, pH 9.6) to block remaining activated units on the well. Then, wells were washed twice with 200 µL of PBST (PBS containing 0.05% Tween 20).
The Cy3 dye reagent was prepared as 1 vial of Cy3 monofunctional dye reagent (succinimidylester type; GE Healthcare, Buckinghamshire, UK) in DMSO (50 µL) and stored at -20 °C. Cy3-labeled Hes1 was prepared by mixing of protein in PBS with Cy3 dye reagent in DMSO (typically 0.6 µL of DMSO solution to 1 mL of 10 mg/L protein solution in PBS) for 30 min at 4 °C in the dark. […]

NSCs = conditions: cited from earlier work
[2] = system: C17.2 mouse neural stem cells; assay: Neural stem cell differentiation assay (Tuj1/GFAP immunofluorescence staining); assay type: cell-based; conditions: C17.2 cells, 6 days, positive control
From the text: We recently developed another protein-based screening method, the target protein oriented natural products isolation method (TPO-NAPI) using protein beads (Fig. 2B). Agalloside, inohanamine, α-mangostine, BE-14106, isomicromonolactam, staurosporin and linarin were isolated as Hes1 binding compounds using the TPO-NAPI method[15],[17]. Rat Hes1 (1–95) containing basic and helix-loop-helix domains was immobilized because the helix-loop-helix domain is known to be important for Hes1-Hes1 interaction; therefore, utilizing this domain in the beads method would likely be effective for screening Hes1 dimer inhibitors. GST-Hes1 immobilized beads were prepared by mixing freshly prepared GST-Hes1 protein with glutathione Sepharose 4B beads. GST-only beads were prepared as a control. After incubating the beads with plant MeOH extracts at 4 °C for 2 h, bound compounds were eluted by adding EtOH and heating at 100 °C for 3 min, then the eluted compounds were analyzed by HPLC. […] The MeOH extract (64.6 g) of Terminalia chebula bark was partitioned with hexane, EtOAc and BuOH to obtain hexane (1.5 g), EtOAc (3.6 g), BuOH (42.6 g), and aqueous (20.5 g) soluble fractions. The EtOAc fraction contained the target peak and was subjected to silica gel column chromatography to give eight fractions (1A-H). Fraction 1D contained the target peak and was separated by ODS column chromatography and reverse-phase HPLC to give compound 11 (0.4 mg). Compound 11 was identified as 4-O-(4″-O-galloyl-α-L-rhamnopyranosyl)ellagic acid by comparison of its NMR data with reported spectral data[37]. […] This is the strongest Hes1 dimer inhibitor reported to date. The ability of 11 to accelerate the differentiation of C17.2 mouse neural stem cells was evaluated (Fig. 5). C17.2 cells (2 × 10^5 cells/mL) were seeded in a poly-L-lysine-coated 24 well plates and incubated for 24 h, then the cells were treated with DMSO (control), 100 μM valproic acid (VPA), 5 μM retinoic acid (RA) (positive controls) or 11 (1 or 5 μM) for 6 days. A confocal microscope was used to obtain images of differentiated neural cells after immunostaining class III β-tubulin (Tuj1) in neurons, and glial fibrillary acidic protein (GFAP) in astrocytes and nuclei (TO-PRO-3). […] In contrast, the control dish containing cells treated with DMSO contained small number of neurons.
C17.2 cells were cultured in proliferation medium [DMEM (DS Pharma Biomedical Co., Ltd. Osaka, Japan) supplemented with 10% fetal bovine serum (Biowest, Nuaillé, France), 5% horse serum (Gibco, Life Technologies, Tokyo, Japan)]. Neural differentiation of C17.2 cells was initiated by transferring the cells to differentiation medium [Neurobasal Medium (Gibco) supplemented with 2% B-27 without vitamin A (Gibco), 1% antibiotic-antimycotic (Gibco)]. All cultures were maintained in a humidified incubator at 37 °C in 5% CO2/95% air.
C17.2 cells were dissociated using the proliferation medium 2 × 10^5 cells/mL on cover glass (MATSUNAMI GLASS) coated with poly-L-lysine and fibronectin/laminin. After incubation for 24 h, cells were washed with D-MEM and treated with individual compounds in differentiation medium for 6 days.
C17.2 cells were fixed with 4% paraformaldehyde in PBS for 20 min at room temperature (r.t.) and washed with 1% BSA in PBS three times. After blocking with 10% BSA in 0.3% Triton X-100 in PBS for 45 min at r.t., fixed cells were incubated with primary antibodies (anti-βIII-Tubulin; Neuronal Class III, Mouse-Mono, 1:400, R&D Systems^TM; anti-GFAP, 1:400, VERITAS) for 12 h at 4 °C. After washing three times with 1% BSA in PBS (500 μL/well), cells were incubated with secondary antibodies (Alexa Fluor® 488 goat anti-mouse IgG (H + L), 1:400, Life Technologies; Alexa Fluor® 555 goat ant-rabbit IgG (H + L), 1:200, Life Technologies) for 1 hr at r.t. in the dark. […]

[3] = Hes1 dimer formation inhibitory activity IC50, Cy3-labeled Hes1 / immobilized Hes1, compound 1 h at RT
[4] = 24 h, 0 μM = 100, read-out: Hes1 dimer formation rate (%)
[5] = 24 h, 25 μM compound, 0 μM = 100, read-out: Hes1 dimer formation rate (%)
[6] = 24 h, 50 μM compound, 0 μM = 100, read-out: Hes1 dimer formation rate (%)
[7] = Cy3-labeled Hes1 / immobilized Hes1, compound 1 h at RT, read-out: Hes1 dimer formation inhibitory activity IC50
[8] = 24 h, 10 μM compound, 0 μM = 100, read-out: Hes1 dimer formation rate (%)
[9] = 24 h, read-out: Hes1 dimer formation rate (%)

## O=C(O)c1cc(O)c(O)c(O)c1 [Commercially available gallic acid, gallic acid, reference compound]
[1]; [3]
  IC50: 8.9 µM

## O=c1c(O)c(-c2ccc(O)cc2O)oc2cc(O)cc(O)c12 [Compound 1, morin]
[1]; [4]
  remaining activity at 5 µM: 89.7%
[1]; [5]
  remaining activity at 25 µM: 79.2%
[1]; [6]
  remaining activity at 50 µM: 37.8%
[1]; [7]
  IC50: 40.8 µM

## O=c1c(O[C@@H]2O[C@H](CO)[C@@H](O)[C@H](O)[C@H]2O)c(-c2ccc(O)c(O)c2)oc2cc(O)cc(O)c12 [Compound 2, isoquercitrin]
[1]; 24 h, 20 μM compound, 0 μM = 100, read-out: Hes1 dimer formation rate (%)
  remaining activity at 20 µM: 67.2%
[1]; 24 h, 60 μM compound, 0 μM = 100, read-out: Hes1 dimer formation rate (%)
  remaining activity at 60 µM: 34.5%
[1]; 24 h, 80 μM compound, 0 μM = 100, read-out: Hes1 dimer formation rate (%)
  remaining activity at 80 µM: 28.3%
[1]; [7]
  IC50: 35.7 µM

## COC(=O)c1cc(O)c(O)c(O)c1 [Compound 3, methyl gallate]
[1]; [4]
  remaining activity at 5 µM: 68.4%
[1]; [8]
  remaining activity at 10 µM: 54.3%
[1]; [5]
  remaining activity at 25 µM: 39.2%
[1]; [7]
  IC50: 12.7 µM

## Oc1cc(O)c2c(c1)O[C@H](c1ccc(O)c(O)c1)[C@@H](O)C2 [Compound 4, (+)-catechin]
[1]; [5]
  remaining activity at 25 µM: 95.4%
[1]; [6]
  remaining activity at 50 µM: 79.2%
[1]; [4]
  remaining activity at 100 µM: 78.8%

## CC(C=CC1(O)C2(C)COC1(C)CC(O)C2)=CC(=O)O (stereo not drawn) [Compound 5, dihydrophaseic acid]
[1]; [5]
  remaining activity at 25 µM: 125%
[1]; [6]
  remaining activity at 50 µM: 122%
[1]; [4]
  remaining activity at 100 µM: 127%

## O=c1c(O)c(-c2ccc(O)c(O)c2)oc2cc(O)cc(O)c12 [Compound 6, quercetin]
[1]; 24 h, 30 μM compound, 0 μM = 100, read-out: Hes1 dimer formation rate (%)
  remaining activity at 30 µM: 82.5%
[1]; 24 h, 40 μM compound, 0 μM = 100, read-out: Hes1 dimer formation rate (%)
  remaining activity at 40 µM: 66.5%
[1]; [6]
  remaining activity at 50 µM: 35.7%
[1]; [7]
  IC50: 45.1 µM

## O=c1c(O[C@@H]2O[C@@H](CO)[C@H](O)[C@H]2O)c(-c2ccc(O)c(O)c2)oc2cc(O)cc(O)c12 [Compound 7, avicularin]
[1]; [4]
  remaining activity at 5 µM: 74.6%
[1]; [5]
  remaining activity at 25 µM: 51.3%
[1]; [6]
  remaining activity at 50 µM: 23.8%
[1]; [7]
  IC50: 26.5 µM

## O=C(O)c1cc(O)c(O)c(O)c1 [Compound 8, gallic acid]
[1]; [4]
  remaining activity at 5 µM: 53.9%
[1]; [8]
  remaining activity at 10 µM: 50.7%
[1]; [5]
  remaining activity at 25 µM: 26.2%
[1]; [3]
  IC50: 10.3 µM

## O=C(O)c1ccc(O)c(O)c1 [Compound 9, protocatechuic acid]
[1]; [9]
  remaining activity at 10 µM: 61.7%
  remaining activity at 25 µM: 49.3%
  remaining activity at 50 µM: 44.9%
[1]; [7]
  IC50: 23.8 µM

## O=C(O)c1ccc(O)cc1 [Compound 10, 4-hydroxybenzoic acid]
[1]; [5]
  remaining activity at 25 µM: 58.8%
[1]; [6]
  remaining activity at 50 µM: 50.4%
[1]; [4]
  remaining activity at 100 µM: 39.8%
[1]; [7]
  IC50: 51.2 µM

## CCCC(=O)/C=C/C1=C(O)C(=O)c2cc(O)c(O)cc2C1=O [Lindbladione]
NSCs
  differentiation of NSCs to neurons: accelerated the differentiation of NSCs to neurons

## CC1=C(/C=C/C(C)=C/C=C/C(C)=C/C(=O)O)C(C)(C)CCC1 [RA, retinoic acid, reference compound]
[2]; 5 μM
  number of neurons: increased

## CCCC(CCC)C(=O)O [VPA, valproic acid, reference compound]
[2]; 100 μM
  number of neurons: increased
